From patent publication US20240261274A1, “TREATMENT OF MYC-DRIVEN CANCERS WITH GSPT1 DEGRADERS” (MONTE ROSA THERAPEUTICS, INC., priority 2021, published 2024)
Read-outs that look alike come from different tables or passages of the source.

Assays:
[1] = test system: human cell line NCI-H1770 xenograft; assay: N-Myc-driven mouse xenograft model, NCI-H1770, compound 210 oral; type: in vivo
GSPT1 = GSPT1 (Homo sapiens, UniProt P15170+Q96SW2); assay: GSPT1 degradation by western blotting in NSCLC cell lines (compound 210); type: cell-based; parameters: endogenous in cells; conditions: NCI-H1155 and ABC-1 cells, six hours
Experimental: The anti-proliferative activity of compound 210 was tested on representative N-Myc high and N-Myc low cell lines (NCI-H1155, ABC-1 and EBC-1, NCI-H2023, respectively) following treatment with compound for 72 hours. Cells were sub-cultures as recommended by the providers (ATCC, DSMZ) and incubated at 37° C., 5% CO2. All cells were authenticated and confirmed by Short Tandem Repeat (STR) profiling. Briefly, cells were seeded to the appropriate density to allow logarithmic growth over the assay period in 96-well opaque-walled clear bottom plates (from Corning, Cat. No. 3903, Lot. No. 16419061; 100 μL total volume) and incubated overnight. […] Cell viability was assessed using the CellTiter-Glo assay kit as recommended by the Manufacturer (Promega, Cat. No. G7558, Lot. No. 0000385738) and measurements performed on the EnSpire multimode plate reader (Perkin Elmer). EC50 values were determined using Prism8 (GraphPad) and the asymmetric (five-parameter) equation and least squares fit. GSPT1 levels were assessed in the NCI-H1155 and ABC-1 cell lines by densitometry analysis following treatment with compound 210 for 6 hours and western blotting analysis. […] For chemiluminescence and colorimetric signals “optimal automatic exposure” settings (3×3 binning) were employed while fluorescence was detected using 1-4 seconds exposure time to achieve best GAPDH signals and avoid overexposure. […]

[2] = test system: c-Myc HMEC isogenic cell line; assay: c-Myc and CRBN dependency, HMEC isogenic cell line viability (CellTiterGlo); type: cell-based, Human; conditions: 72 hours
Experimental: Human mammary epithelial cells (HMEC) were engineered to express either c-Myc tagged with EGFP or EGFP alone (non myc) (analogous but distinct from Kessler J D et al, Science. 2012 Jan. 20; 335(6066):348-53. doi: 10.1126/science.1212728; Hsu T Y et al, Nature. 2015 Sep. 17; 525(7569):384-8. doi: 10.1038/nature14985). The engineered cells were plated in 6 well plates or seeded at 1000 (myc) or 4000 (non myc) cells/well in a 384 ultra-low attachment plate in a total volume of 40 μL HMEC cell culture media (DMEM/F12+10% HI-FBS+15 mM HEPES+0.5 ug/ml Hydrocortisone+10 ug/ml Insulin+20 ng/ml EGF). Cells were cultured in the presence or absence of doxycycline for 25 population doublings and cell lysates generated for western blotting probing for c-Myc, 4EBP1, phosphor-4EBP1 (p4EBP1) as indicated. β-actin used as a loading control. For the wash-off lane, doxycycline was removed 24 hours before cell lysis. Cell viability was assessed in the presence (Myc on) or absence (Myc off, −Dox) of doxycycline and also following doxycycline removal (Myc off, wash-off). Cell viability was performed following treatment with compound 8 for 72 hours as recommended by the provider (Promega, CellTiterGlo). Similarly, CRBN-dependency was assessed in the HMEC proficient and deficient cell lines induced for c-Myc expression with doxycycline and viability performed as above following 72 hours of treatment with compound 8. EC50 values were determined using Prism8 (GraphPad) and the asymmetric (five-parameter) equation and least squares fit.

Sequence of GSPT1 (P15170 whole entry): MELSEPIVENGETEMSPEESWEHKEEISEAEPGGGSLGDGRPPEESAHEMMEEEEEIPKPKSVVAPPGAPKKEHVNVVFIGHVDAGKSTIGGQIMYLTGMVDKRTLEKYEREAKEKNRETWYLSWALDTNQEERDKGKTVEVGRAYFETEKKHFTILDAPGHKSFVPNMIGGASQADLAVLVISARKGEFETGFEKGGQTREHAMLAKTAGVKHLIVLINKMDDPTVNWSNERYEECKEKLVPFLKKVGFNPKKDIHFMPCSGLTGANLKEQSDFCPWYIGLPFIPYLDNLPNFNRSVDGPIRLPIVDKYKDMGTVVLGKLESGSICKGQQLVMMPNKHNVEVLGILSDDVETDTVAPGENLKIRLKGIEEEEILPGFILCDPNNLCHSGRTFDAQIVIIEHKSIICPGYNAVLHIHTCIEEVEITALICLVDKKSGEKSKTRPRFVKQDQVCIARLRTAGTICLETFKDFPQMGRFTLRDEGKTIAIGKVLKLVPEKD
Sequence of GSPT1 (Q96SW2 whole entry): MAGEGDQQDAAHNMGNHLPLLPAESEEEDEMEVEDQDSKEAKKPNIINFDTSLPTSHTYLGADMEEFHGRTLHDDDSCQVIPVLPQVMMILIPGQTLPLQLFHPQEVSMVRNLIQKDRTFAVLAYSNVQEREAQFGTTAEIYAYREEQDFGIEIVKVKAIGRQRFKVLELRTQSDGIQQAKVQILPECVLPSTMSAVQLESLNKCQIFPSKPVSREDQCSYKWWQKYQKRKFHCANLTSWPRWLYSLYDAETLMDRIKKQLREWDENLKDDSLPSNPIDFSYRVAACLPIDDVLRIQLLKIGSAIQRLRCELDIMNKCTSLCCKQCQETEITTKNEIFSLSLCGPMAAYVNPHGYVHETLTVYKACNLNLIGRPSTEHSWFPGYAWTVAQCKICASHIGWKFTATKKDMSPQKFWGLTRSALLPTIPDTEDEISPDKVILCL
Sequence of GSPT1 (Q16531 whole entry partner): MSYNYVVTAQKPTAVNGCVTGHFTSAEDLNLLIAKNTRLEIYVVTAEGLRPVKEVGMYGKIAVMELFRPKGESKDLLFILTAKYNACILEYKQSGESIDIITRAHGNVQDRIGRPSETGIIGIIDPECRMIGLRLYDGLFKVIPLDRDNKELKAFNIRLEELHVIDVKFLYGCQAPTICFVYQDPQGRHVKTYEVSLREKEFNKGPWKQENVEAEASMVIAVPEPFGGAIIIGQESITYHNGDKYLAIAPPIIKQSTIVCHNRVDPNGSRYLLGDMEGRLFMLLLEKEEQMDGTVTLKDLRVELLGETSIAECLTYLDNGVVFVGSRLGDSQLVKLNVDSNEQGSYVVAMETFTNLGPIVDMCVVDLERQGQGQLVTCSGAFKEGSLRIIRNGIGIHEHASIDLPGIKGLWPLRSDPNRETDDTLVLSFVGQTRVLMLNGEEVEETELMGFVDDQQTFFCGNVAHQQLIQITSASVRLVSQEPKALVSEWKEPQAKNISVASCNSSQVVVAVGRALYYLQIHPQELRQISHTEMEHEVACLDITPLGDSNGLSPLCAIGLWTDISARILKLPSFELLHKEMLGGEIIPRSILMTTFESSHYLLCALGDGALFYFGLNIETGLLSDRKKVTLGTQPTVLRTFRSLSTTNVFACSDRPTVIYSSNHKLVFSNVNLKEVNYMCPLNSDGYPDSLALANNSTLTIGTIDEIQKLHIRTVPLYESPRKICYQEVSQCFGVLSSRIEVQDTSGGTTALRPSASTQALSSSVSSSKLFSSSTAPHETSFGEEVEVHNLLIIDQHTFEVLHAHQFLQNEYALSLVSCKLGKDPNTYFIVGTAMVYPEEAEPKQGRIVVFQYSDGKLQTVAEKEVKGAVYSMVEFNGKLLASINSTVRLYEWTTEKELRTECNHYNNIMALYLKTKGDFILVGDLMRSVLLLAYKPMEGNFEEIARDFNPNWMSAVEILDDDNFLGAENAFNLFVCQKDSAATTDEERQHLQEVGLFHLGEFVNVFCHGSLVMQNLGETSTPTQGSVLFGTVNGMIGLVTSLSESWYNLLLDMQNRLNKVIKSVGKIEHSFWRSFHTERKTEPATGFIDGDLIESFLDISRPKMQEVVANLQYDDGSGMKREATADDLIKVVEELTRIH

SMILES | tumor size ([1]; 3 mg/kg once daily) | tumor size ([1]; 6 mg/kg, five days on and nine days off) | body weight ([1]; oral administration) | tumor growth ([1]; oral administration) | extent of GSPT1 degradation (GSPT1) | cell death in cells for which cereblon was knocked out ([2]; CRBN deficient HMEC induced for c-Myc) | EC50 ([2]; Homo sapiens, HMEC, absence of doxycycline-driven c-Myc expression, read-out: cell death, highest concentration tested) | EC50 ([2]; Homo sapiens, HMEC, presence of high c-Myc expression (doxycycline), read-out: EC50 of induced cell death) | EC50 ([2]; after doxycycline was washed out to remove c-Myc expression, read-out: cell death, highest concentration tested)
Cc1ccc(NC(=O)OCc2ccc3c(c2)C(=O)N(C2CCC(=O)NC2=O)C3)cc1Cl (stereo not drawn) [Compound 210] | tumor size decreased and remained so until the end of the study | tumor size decreased and remained so until the end of the study | no body weight loss observed | tumor growth inhibition | Complete degradation of GSPT1 | – | – | – | –
Cc1ccc(NC(=O)NCc2ccc3c(c2)C(=O)N(C2CCC(=O)NC2=O)C3)cc1Cl (stereo not drawn) [Compound 8] | – | – | – | – | – | did not induce death | > 30 µM | 0.64 µM | > 30 µM
